Measurements from the supplement of paper PMC11208160.

Experiment: recombinant UMI read abundance after kanamycin selection (control-corrected) (log10(CPM+1)); higher = more efficient recombination; extreme values may be limits of the assay; sequences stand for … in AGTGCAGAGAAAATCGGCCAGTTTTCTCTGCCTGCAGTCCGCATGCCGTGGGACCCCTTGGGTTCTAACCTGTTGCCTAGATTTATGCAGCGGACTGCCTTTCTCCCAAAGTGATAAACCGG…AGGTTGGTTTCACT; site = the 11-nt donor
Method in brief: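 Values are reported as log10(CPM+1), obtained by converting sequencing counts to CPM, averaging replicates and scaling by control-derived factors. The counts came from recombinant UMIs amplified by PCR across the donor–target junction. These UMIs came from a pooled Escherichia coli screen of donor and donor-binding-loop pairs for the IS621 bridge recombinase, plated with IPTG (0.07 mM) plus kanamycin or left unselected, in two replicates each.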
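Also: IS621 bridge recombinase in Escherichia coli cells against a fixed T5 target plasmid.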

Sequence: TCAACCGCATGGACCGGTTTTCCCGGTAATCCGTATTTGCG (site TCAACCGCTCG)
- recombinant UMI read abundance (log10): 0

Sequence: TCAACCGCATGGACCGGTTTTCCCGGTAATCCGTATTTGCG (site TCCACCGCTCG)
- recombinant UMI read abundance (log10): 0

Sequence: TCAACCGCATGGACCGGTTTTCCCGGTAATCCGTATTTGCG (site TCGACCGCTCG)
- recombinant UMI read abundance (log10): 0.00292

Sequence: TCAACCGCATGGACCGGTTTTCCCGGTAATCCGTATTTGCG (site TCTACCGCTCG)
- recombinant UMI read abundance (log10): 0

Sequence: TCAACGGCATGGACCGGTTTTCCCGGTAATCCGTATTTGCC (site TCAACGGCTGG)
- recombinant UMI read abundance (log10): 0.143

Sequence: TCAAGCACATGGACCGGTTTTCCCGGTAATCCGTATTTGAT (site TCAAGCACTAT)
- recombinant UMI read abundance (log10): 1.94

Sequence: TCAAGTCCATGGACCGGTTTTCCCGGTAATCCGTATTTGTA (site TAAAGTCCTTA)
- recombinant UMI read abundance (log10): 0.314

Sequence: TCAAGTCCATGGACCGGTTTTCCCGGTAATCCGTATTTGTA (site TCAAGTCCTTA)
- recombinant UMI read abundance (log10): 1.01

Sequence: TCAAGTCCATGGACCGGTTTTCCCGGTAATCCGTATTTGTA (site TGAAGTCCTTA)
- recombinant UMI read abundance (log10): 0.226

Sequence: TCAAGTCCATGGACCGGTTTTCCCGGTAATCCGTATTTGTA (site TTAAGTCCTTA)
- recombinant UMI read abundance (log10): 0.0663

Sequence: TCAATGACATGGACCGGTTTTCCCGGTAATCCGTATTTGGT (site TCAATGACTAC)
- recombinant UMI read abundance (log10): 0.953

Sequence: TCACACCCATGGACCGGTTTTCCCGGTAATCCGTATTTGCC (site TCACACCCTGG)
- recombinant UMI read abundance (log10): 0.92

Sequence: TCACAGACATGGACCGGTTTTCCCGGTAATCCGTATTTGCG (site TCAAAGACTCG)
- recombinant UMI read abundance (log10): 0.308

Sequence: TCACAGACATGGACCGGTTTTCCCGGTAATCCGTATTTGCG (site TCACAGACTCG)
- recombinant UMI read abundance (log10): 2.16

Sequence: TCACAGACATGGACCGGTTTTCCCGGTAATCCGTATTTGCG (site TCAGAGACTCG)
- recombinant UMI read abundance (log10): 0.267

Sequence: TCACAGACATGGACCGGTTTTCCCGGTAATCCGTATTTGCG (site TCATAGACTCG)
- recombinant UMI read abundance (log10): 0.29

Sequence: TCACATCCATGGACCGGTTTTCCCGGTAATCCGTATTTGAC (site ACACATCCTGT)
- recombinant UMI read abundance (log10): 0

Sequence: TCACATCCATGGACCGGTTTTCCCGGTAATCCGTATTTGAC (site CCACATCCTGT)
- recombinant UMI read abundance (log10): 0

Sequence: TCACATCCATGGACCGGTTTTCCCGGTAATCCGTATTTGAC (site GCACATCCTGT)
- recombinant UMI read abundance (log10): 0

Sequence: TCACATCCATGGACCGGTTTTCCCGGTAATCCGTATTTGAC (site TCACATCCTGT)
- recombinant UMI read abundance (log10): 0

Sequence: TCACCCGCATGGACCGGTTTTCCCGGTAATCCGTATTTGGT (site TCACCCGCTAC)
- recombinant UMI read abundance (log10): 0.206

Sequence: TCACCTTCATGGACCGGTTTTCCCGGTAATCCGTATTTGGT (site TCACCTTCTAC)
- recombinant UMI read abundance (log10): 0.0163

Sequence: TCACGAACATGGACCGGTTTTCCCGGTAATCCGTATTTGTC (site ACACGAACTGA)
- recombinant UMI read abundance (log10): 0

Sequence: TCACGAACATGGACCGGTTTTCCCGGTAATCCGTATTTGTC (site CCACGAACTGA)
- recombinant UMI read abundance (log10): 0.736

Sequence: TCACGAACATGGACCGGTTTTCCCGGTAATCCGTATTTGTC (site GCACGAACTGA)
- recombinant UMI read abundance (log10): 0

Sequence: TCACGAACATGGACCGGTTTTCCCGGTAATCCGTATTTGTC (site TCACGAACTGA)
- recombinant UMI read abundance (log10): 0

Sequence: TCACGAGCATGGACCGGTTTTCCCGGTAATCCGTATTTGAA (site TCACGAGCTTT)
- recombinant UMI read abundance (log10): 1.23

Sequence: TCACGCACATGGACCGGTTTTCCCGGTAATCCGTATTTGAC (site TCACGCACTGT)
- recombinant UMI read abundance (log10): 0.943

Sequence: TCACGCGCATGGACCGGTTTTCCCGGTAATCCGTATTTGCT (site TCACGCGCTAG)
- recombinant UMI read abundance (log10): 1.67

Sequence: TCACGGACATGGACCGGTTTTCCCGGTAATCCGTATTTGCT (site TCACGGACTAG)
- recombinant UMI read abundance (log10): 1.43

Sequence: TCAGAAACATGGACCGGTTTTCCCGGTAATCCGTATTTGCG (site TCAGAAACTCG)
- recombinant UMI read abundance (log10): 1.86

Sequence: TCAGAAACATGGACCGGTTTTCCCGGTAATCCGTATTTGCG (site TCAGACACTCG)
- recombinant UMI read abundance (log10): 0.0112

Sequence: TCAGAAACATGGACCGGTTTTCCCGGTAATCCGTATTTGCG (site TCAGAGACTCG)
- recombinant UMI read abundance (log10): 2.47

Sequence: TCAGAAACATGGACCGGTTTTCCCGGTAATCCGTATTTGCG (site TCAGATACTCG)
- recombinant UMI read abundance (log10): 0.202

Sequence: TCAGAAACATGGACCGGTTTTCCCGGTAATCCGTATTTGTA (site TCAGAAACTTA)
- recombinant UMI read abundance (log10): 2.07

Sequence: TCAGACACATGGACCGGTTTTCCCGGTAATCCGTATTTGCG (site TCAGAAACTCG)
- recombinant UMI read abundance (log10): 0

Sequence: TCAGACACATGGACCGGTTTTCCCGGTAATCCGTATTTGCG (site TCAGACACTCG)
- recombinant UMI read abundance (log10): 1.77

Sequence: TCAGACACATGGACCGGTTTTCCCGGTAATCCGTATTTGCG (site TCAGAGACTCG)
- recombinant UMI read abundance (log10): 0.0043

Sequence: TCAGACACATGGACCGGTTTTCCCGGTAATCCGTATTTGCG (site TCAGATACTCG)
- recombinant UMI read abundance (log10): 0.946

Sequence: TCAGAGACATGGACCGGTTTTCCCGGTAATCCGTATTTGAA (site TCAGAGACTTT)
- recombinant UMI read abundance (log10): 1.74

Sequence: TCAGAGACATGGACCGGTTTTCCCGGTAATCCGTATTTGCA (site TCAGAGACTAG)
- recombinant UMI read abundance (log10): 0.204

Sequence: TCAGAGACATGGACCGGTTTTCCCGGTAATCCGTATTTGCA (site TCAGAGACTCG)
- recombinant UMI read abundance (log10): 1.34

Sequence: TCAGAGACATGGACCGGTTTTCCCGGTAATCCGTATTTGCA (site TCAGAGACTGG)
- recombinant UMI read abundance (log10): 0.635

Sequence: TCAGAGACATGGACCGGTTTTCCCGGTAATCCGTATTTGCA (site TCAGAGACTTG)
- recombinant UMI read abundance (log10): 2.49

Sequence: TCAGAGACATGGACCGGTTTTCCCGGTAATCCGTATTTGCC (site TCAGAGACTAG)
- recombinant UMI read abundance (log10): 0.85

Sequence: TCAGAGACATGGACCGGTTTTCCCGGTAATCCGTATTTGCC (site TCAGAGACTCG)
- recombinant UMI read abundance (log10): 0.683

Sequence: TCAGAGACATGGACCGGTTTTCCCGGTAATCCGTATTTGCC (site TCAGAGACTGG)
- recombinant UMI read abundance (log10): 1.58

Sequence: TCAGAGACATGGACCGGTTTTCCCGGTAATCCGTATTTGCC (site TCAGAGACTTG)
- recombinant UMI read abundance (log10): 1.62

Sequence: TCAGAGACATGGACCGGTTTTCCCGGTAATCCGTATTTGCT (site TCAGAGACTAG)
- recombinant UMI read abundance (log10): 2.38

Sequence: TCAGAGACATGGACCGGTTTTCCCGGTAATCCGTATTTGCT (site TCAGAGACTCG)
- recombinant UMI read abundance (log10): 0.601

Sequence: TCAGAGACATGGACCGGTTTTCCCGGTAATCCGTATTTGCT (site TCAGAGACTGG)
- recombinant UMI read abundance (log10): 2.21

Sequence: TCAGAGACATGGACCGGTTTTCCCGGTAATCCGTATTTGCT (site TCAGAGACTTG)
- recombinant UMI read abundance (log10): 0.868

Sequence: TCAGAGACATGGACCGGTTTTCCCGGTAATCCGTATTTGGG (site TCAGAGACTCA)
- recombinant UMI read abundance (log10): 0.0103

Sequence: TCAGAGACATGGACCGGTTTTCCCGGTAATCCGTATTTGGG (site TCAGAGACTCC)
- recombinant UMI read abundance (log10): 0

Sequence: TCAGAGACATGGACCGGTTTTCCCGGTAATCCGTATTTGGG (site TCAGAGACTCG)
- recombinant UMI read abundance (log10): 0

Sequence: TCAGAGACATGGACCGGTTTTCCCGGTAATCCGTATTTGGG (site TCAGAGACTCT)
- recombinant UMI read abundance (log10): 0.0246

Sequence: TCAGATTCATGGACCGGTTTTCCCGGTAATCCGTATTTGGA (site TCAGATTCTTC)
- recombinant UMI read abundance (log10): 1.34

Sequence: TCAGGGACATGGACCGGTTTTCCCGGTAATCCGTATTTGGG (site TCAGGGACTCC)
- recombinant UMI read abundance (log10): 0.00795

Sequence: TCAGGTTCATGGACCGGTTTTCCCGGTAATCCGTATTTGCT (site TCAGGTTCTAG)
- recombinant UMI read abundance (log10): 1.27

Sequence: TCAGTAGCATGGACCGGTTTTCCCGGTAATCCGTATTTGCA (site ACAGTATCTTG)
- recombinant UMI read abundance (log10): 2.25

Sequence: TCAGTAGCATGGACCGGTTTTCCCGGTAATCCGTATTTGCA (site TCAGTAGCTTG)
- recombinant UMI read abundance (log10): 1.9

Sequence: TCAGTCTCATGGACCGGTTTTCCCGGTAATCCGTATTTGAT (site TCAGTCTCTAT)
- recombinant UMI read abundance (log10): 2.42

Sequence: TCAGTGCCATGGACCGGTTTTCCCGGTAATCCGTATTTGCG (site TCAGTGCCTCG)
- recombinant UMI read abundance (log10): 0.0165

Sequence: TCATACCCATGGACCGGTTTTCCCGGTAATCCGTATTTGCA (site TCATACACTTG)
- recombinant UMI read abundance (log10): 0

Sequence: TCATACCCATGGACCGGTTTTCCCGGTAATCCGTATTTGCA (site TCATACCCTTG)
- recombinant UMI read abundance (log10): 0.0304

Sequence: TCATACCCATGGACCGGTTTTCCCGGTAATCCGTATTTGCA (site TCATACGCTTG)
- recombinant UMI read abundance (log10): 0

Sequence: TCATACCCATGGACCGGTTTTCCCGGTAATCCGTATTTGCA (site TCATACTCTTG)
- recombinant UMI read abundance (log10): 0.995

Sequence: TCATACGCATGGACCGGTTTTCCCGGTAATCCGTATTTGCA (site TCATACACTTG)
- recombinant UMI read abundance (log10): 1.03

Sequence: TCATACGCATGGACCGGTTTTCCCGGTAATCCGTATTTGCA (site TCATACCCTTG)
- recombinant UMI read abundance (log10): 0.169

Sequence: TCATACGCATGGACCGGTTTTCCCGGTAATCCGTATTTGCA (site TCATACGCTTG)
- recombinant UMI read abundance (log10): 2.25

Sequence: TCATACGCATGGACCGGTTTTCCCGGTAATCCGTATTTGCA (site TCATACTCTTG)
- recombinant UMI read abundance (log10): 0.604

Sequence: TCATACTCATGGACCGGTTTTCCCGGTAATCCGTATTTGCA (site ACATACTCTTG)
- recombinant UMI read abundance (log10): 1.34

Sequence: TCATACTCATGGACCGGTTTTCCCGGTAATCCGTATTTGCA (site CCATACTCTTG)
- recombinant UMI read abundance (log10): 2.03

Sequence: TCATACTCATGGACCGGTTTTCCCGGTAATCCGTATTTGCA (site GCATACTCTTG)
- recombinant UMI read abundance (log10): 1.3

Sequence: TCATACTCATGGACCGGTTTTCCCGGTAATCCGTATTTGCA (site TAATACTCTTG)
- recombinant UMI read abundance (log10): 1.45
